Values joined by “and” are separate entries in the source; they are usually repeats but may differ in a detail not shown here. Equal entries are not always repeated.
Experiments:
[1] = Reduction of hydrogen peroxide; details: compounds 0.1 mM; phosphate buffer pH 7.4; 10 min
Experimental: Harmful hydroxyl radicals are released when hydrogen peroxide interacts with transition metal ions, leading to oxidative stress. Consequently, both oxidative stress and the production of reactive oxygen species could be reduced by ^•OH scavengers and H2O2 reducing agents.
(§1) S1 Antioxidant activity assay
The antioxidant activity of the compound was evaluated via the ability to scavenge in vitro free radicals such as DPPH and ABTS and to reduce H2O2. […]
S1.3 Reduction of hydrogen peroxide
The ability of the compounds to reduce hydrogen peroxide (H2O2) was estimated according to the method described in the literature. The reaction mixture contained 20 μL of each of the tested compounds (0.1 mM) and 5 μL H2O2 solution (40 mM) in phosphate […]
buffer (50 mM, pH 7.4). The absorbance was measured at 230 nm after 10 min. The antioxidant activity (reduction of H2O2) of the compounds was expressed as the percentage decrease of the initial H2O2 solution (H2O2%). […]

[2] = ABTS radical cation scavenging; details: compounds 0.1 mM; absorbance 734 nm after 1 min
Experimental: The ABTS-scavenging was measured through the discoloration of a dark green solution containing the cationic radical ABTS^•+, which was induced from the oxidation derived from hydrogen-donating antioxidants, either complexes or standards, and is often considered a marker of total oxidation capacity. […] Such an increase in activity upon coordination is expected for metal–NSAID complexes.
as §1
The antioxidant activity of the compound was evaluated via the ability to scavenge in vitro free radicals such as DPPH and ABTS and to reduce H2O2. All the experiments were carried out at least in triplicate and the standard deviation of absorbance was less than 10% […]
S1.2 Assay of radical cation ABTS−scavenging activity
The ABTS assay was performed to determine the activity of the compounds to scavenge the radical cation ABTS. Initially, a water solution of ABTS was prepared (2 mM).
ABTS radical cation (ABTS+·) was produced by the reaction of ABTS stock solution with potassium persulfate (0.17 mM) and the mixture was stored in the dark at room temperature for 12−16 h before its use. The ABTS was oxidized incompletely because the stoichiometric reaction ratio of ABTS and potassium persulfate is 1:0.5. The absorbance became maximal and stable only after more than 6 h of reaction although the oxidation of the ABTS started immediately. The radical was stable in this form for more than 2 days when allowed to stand in the dark at room temperature. Afterwards, the ABTS+· solution was diluted in ethanol to an absorbance of 0.70 at 734 nm and 10 μL of diluted compounds or standards (0.1 mM) in DMSO were added. The absorbance was recorded out exactly 1 min after initial mixing.
The ABTS–radical scavenging activity of the compounds was expressed as the percentage inhibition of the absorbance of the initial ABTS solution (ABTS%). […]

CT DNA = assay: DNA-melting temperature of CT DNA in presence of the compounds; assay type: binding, calf; details: compound–DNA ratio 1:50; for Tm of CT DNA in the presence of the compound: CT DNA alone Tm 80.7 °C; for ΔTm of CT DNA: versus CT DNA alone 80.7 °C
Text: In order to further clarify the interaction mode of the compounds with CT DNA, the effect of the temperature of this interaction was also investigated. Within this context, the thermal denaturation of DNA in the presence of the compounds was studied with UV-vis spectroscopy in order to calculate (via a sigmoidal fitting of the experimental data) the DNA-melting temperature (Tm), i.e., the temperature at which half of double-stranded DNA is denatured (“melted”) to single-stranded DNA.
S3 Binding studies with CT DNA
In order to study the interaction of the compounds with DNA, the compound was initially dissolved in DMSO (1 mM). Mixing of such solutions with the aqueous buffer solutions of DNA used in the studies never exceeded 5% DMSO (v/v) in the final solution, which was needed due to low aqueous solubility of most compounds. In all experiments, the effect of DMSO on the data has been taken into consideration and the appropriate corrections have been performed. The interaction of the compound with CT DNA was monitored by UV−vis spectroscopy, and viscosity measurements, and via competitive studies with EB by fluorescence emission spectroscopy. […]
S3.2 Determination of the DNA–melting temperature (Tm)
The UV–vis spectra of a CT DNA solution (1.25×10–4 M) in the presence of the compounds (2.5×10–6 M) were recorded upon increasing the temperature. The obtained data are presented as normalized absorbance at 260 nm (Normalized A(260 nm)) versus temperature (T (ºC)). A sigmoidal fitting of the data was applied for each compound and the melting temperature Tm (temperature with normalized absorbance of 0.5) was determined. […]

EB–DNA adduct (CT DNA) = assay: EB-displacement (EB–DNA fluorescence quenching); assay type: binding, calf; details: for relative EB–DNA fluorescence emission intensity (I/Io, %), final: % of the initial EB–DNA fluorescence remaining, λemission 594 nm; for percentage of EB–DNA fluorescence emission quenching (ΔI/I0, %): λexcitation 540 nm, emission 594 nm, buffer pH 7; for quenching constant Kq (EB–DNA): τ0 = 23 ns
Experimental: For the current study, the EB–DNA adduct was prepared in situ after 1-h pretreatment of EB (40 μΜ) and CT DNA (40 μΜ) in buffer solution (sodium chloride 150 mM and sodium citrate 15 mM at pH = 7).
Furthermore, the Stern–Volmer constants (KSV) that represent the ability of the compounds to induce quenching were calculated with the Stern–Volmer equation (Equation (S2)) and the corresponding Stern–Volmer plots […] vs. [Q] (Figure S8). […] The corresponding quenching constants (Kq) were calculated with Equation (S3) using the value of 23 ns as the fluorescence lifetime (τ0) of EB–DNA adduct.
S3.4 EB−displacement studies
The competition of the compounds with EB was investigated by fluorescence emission spectroscopy to examine whether the compounds can displace EB from its DNA−EB adduct. The CT DNA−EB complex was formed by pre−treating 40 μM EB and […] CT DNA in buffer (150 mM NaCl and 15 mM trisodium citrate at pH 7.0). The possible displacement of EB by the compound sand subsequently the intercalating effect was studied by the stepwise addition of a certain amount of the solution of each compound into the solution of the CT DNA−EB adduct. The solutions were excited at 540 nm and the emission was monitored from 550−700 nm with λmax = 592−594 nm and the effect of the addition of the compounds to the CT−DNA EB solution was recorded. […]
fluorescence emission bands at room temperature in solution or in the presence of CT DNA or EB under the same experimental conditions (λexcitation = 540 nm); therefore, the observed quenching of the EB−DNA solution may be attributed to the displacement of EB from its […]
The Stern−Volmer constants (KSV, in M−1) were calculated according to the linear Stern−Volmer equation (equation S2) and the respective plots Io/I versus [compound]:
Io = 1 + K τ [Q] = 1 + K [Q] (equation S2) […]
where Io and I are the emission intensities of the EB−DNA solution in the absence and the presence of the compound, respectively, τo = the average lifetime of the emitting system without the quencher and kq = the quenching constant. Taking τo = 23 ns as the fluorescence lifetime of the EB−DNA adduct, the quenching constant of the compound (Kq, in M−1s−1) was calculated according to equation [6]: […]

Solubility = assay type: physicochemical

| SMILES | H2O2-reducing ability (H2O2%) [1] | %ABTS radical scavenging activity (ABTS%) [2] | Tm of CT DNA in the presence of the compound (CT DNA) [°C] | Stern–Volmer constant Ksv (EB–DNA) (EB–DNA adduct (CT DNA)) | relative EB–DNA fluorescence emission intensity (I/Io, %), final (EB–DNA adduct (CT DNA)) [%] | percentage of EB–DNA fluorescence emission quenching (ΔI/I0, %) (EB–DNA adduct (CT DNA)) [%] | quenching constant Kq (EB–DNA) (EB–DNA adduct (CT DNA)) | solubility in H2O and MeCN (Solubility) | ΔTm of CT DNA (CT DNA) |
| --- | --- | --- | --- | --- | --- | --- | --- | --- | --- |
| O=C(O)c1ccccc1Nc1ccc([N+](=O)[O-])cc1 [4′–NO2–fenH, 4′–nitrofenamic acid] | 66.46% and 66.46 ± 0.33% | Not active | 83.7 | 5.36 (±0.27) × 10^4 M^−1 | 52.9 | 47.1 | 2.33 (±0.11) × 10^12 M^−1s^−1 | – | – |
| CO.CO.CO.CO.O=C([O-])c1ccccc1Nc1ccc([N+](=O)[O-])cc1.O=C([O-])c1ccccc1Nc1ccc([N+](=O)[O-])cc1.[Co+2] [Complex 1, [Co(4′–NO2–fen)2(MeOH)4]] | 72.68 ± 0.63% | 24.68 ± 0.35% | 83.7 | 4.99 (±0.14) × 10^4 M^−1 | 35.4 | 64.6 | 2.17 (±0.06) × 10^12 M^−1s^−1 | partially soluble | – |
| O=C([O-])c1ccccc1Nc1ccc([N+](=O)[O-])cc1.O=C([O-])c1ccccc1Nc1ccc([N+](=O)[O-])cc1.[Co+2].c1ccc(Nc2ccccn2)nc1 [Complex 2, [Co(4′–NO2–fen)2(bipyam)]] | 77.59 ± 0.28% | 43.65 ± 0.37% | 74.5 | 8.91 (±0.21) × 10^4 M^−1 | 32.6 | 67.3 | 3.88 (±0.09) × 10^12 M^−1s^−1 | partially soluble | negative |
| O=C([O-])c1ccccc1Nc1ccc([N+](=O)[O-])cc1.O=C([O-])c1ccccc1Nc1ccc([N+](=O)[O-])cc1.[Co+2].c1cnc2c(c1)ccc1cccnc12 [Complex 3, [Co(4′–NO2–fen)2(phen)]] | 69.48 ± 0.37% | 48.12 ± 0.88% | 84.7 | 7.39 (±0.21) × 10^4 M^−1 | 26.3 | 73.7 | 3.21 (±0.09) × 10^12 M^−1s^−1 | partially soluble | – |
| C[O-].C[O-].Cc1ccc2ccc3ccc(C)nc3c2n1.Cc1ccc2ccc3ccc(C)nc3c2n1.O=C([O-])c1ccccc1Nc1ccc([N+](=O)[O-])cc1.O=C([O-])c1ccccc1Nc1ccc([N+](=O)[O-])cc1.[Co+2].[Co+2] [Complex 4, [Co2(4′–NO2–fen)2(μ–CH3O)2(neoc)2]] | 72.44 ± 0.42% | 21.39 ± 0.22% | 73.9 | 7.78 (±0.24) × 10^4 M^−1 | 26.0 | 74.0 | 3.38 (±0.10) × 10^12 M^−1s^−1 | partially soluble | negative |
